Key:
[1] = cited from earlier work
[2] = 0.3% by weight ethylhexylglycerin in ethanol base deodorant vs 0.1% by weight triclosan; cited from earlier work
[3] = system: odor-causing gram positive bacteria; conditions: as reported in U.S. Pat. No. 5,736,574; cited from earlier work
[4] = system: Staphylococcus; assay: Anti-microbial test: microorganisms inoculated into gel formula, survivors counted; format: cell-based
Description: The antimicrobially synergistically effect of alpha Bisabolol (Natural) for glyceryl monoalkyl ether was studied and the results are summarized in Tables 15 and 16, below. […] Subsequently the steareth-100, sodium stearate, and stearyl alcohol were added and the mixture cooled. […] The final compositions were then poured into containers and cooled to room temperature. […] Therefore following formula is gel type. Inoculate test microorganisms to provide a suspension containing from […] microorganisms/ml and after 1 hr, 5 hr and 24 hr, check the surviving microorganisms by incubating in the soybean-casein digest agar for 24 hours at 32.5° C. the results are summarized below.

Row | Compound | stability ([1]; e.g. against hydrolysis and elevated temperatures) | solubility in fats and organic solvents ([1]; fats and organic solvents like alcohols, glycols and glycol ethers) | solubility in water ([1]; water) | deodorant effectiveness compared with triclosan [2] | anti-microbial activity against odor-causing gram positive bacteria [3] | anti-microbial activity (in words) ([4]; 0.2% by weight, with no ethylhexylglycerin) | effect on the anti-microbial activity of ethylhexylglycerin ([4]; alpha Bisabolol (Natural) combined with ethylhexylglycerin)
1 | CCCCC(CC)COCC(O)CO (stereo not shown) [ethylhexylglycerin, Ethylhexylglycerin] | rather stable | completely soluble | 0.2% | just as effective as 0.1% by weight triclosan | very low | – | –
2 | CC(C)=CCC[C@](C)(O)[C@@H]1CC=C(C)CC1 [alpha Bisabolol (Natural), alpha-Bisabolol] | – | – | – | – | – | no anti-microbial activity | synergistic effect

Reference: patent US20080292571A1, “Deodorant composition with monocyclic, unsaturated sequiterpene alcohols and glyceryl monoalkyl ethers as synergistic active deodorant agents” (priority 2007, published 2008)
